In US5260189A, “Synthetic HIV-like peptides their compositions and uses” (Immunodiagnostics, Inc., priority 1992, dated 1993):
Entries after “also recorded” stand apart in the source; their conditions may differ.

Legend:
antibodies to SIV/HIV-2 = test: EIA of peptide-protein conjugates coated on polystyrene microtiter plates, macaque sera; format: binding, rhesus macaque (Macaca mulatta)
Source text: For all of the immunoassays employing human serum, the serum samples were obtained from the King County Health Department, Seattle, Wash., U.S.A., and each serum had been characterized as positive or negative with respect to antibodies to HIV-1, as determined by testing with the commercially licensed Genetic Systems and or DuPont EIA tests. Serum from rhesus macaque monkeys (Macaca mulatta) was obtained from the University of Washington, Seattle, Wash., U.S.A., and had been characterized by a SIV whole virus lysate EIA as either containing or not containing antibodies to SIV which is nearly identical in sequence to HIV-2 in the region of the peptide epitopes studied.
(§1) The free peptides or peptide-protein conjugates of FIGS. 1-13 were initially screened for immunoreactivity by coating each well of polystyrene microtiter EIA plates (Costar, Cambridge, Mass., U.S.A.) with 0.2 ml amounts of concentrations of 5-50 micrograms/ml peptide in Tris buffer, 10 mM, pH 8.0, at 4° C. overnight. Peptides or peptide-protein conjugates showing immunoreactivity by EIA were then further diluted for coating to determine the minimal concentrations required that allowed maximal immunoreactivity with antibodies to HIV, and minimal nonspecific reactivity with normal sera. The EIA tests were performed as follows: The coating solution was removed from each well and the wells were blocked at 37° C. for 30 minutes with a solution of 50 mM phosphate, 100 mM NaCl, pH 7.4, 1% BSA, 0.5% gelatin. The wells were then aspirated dry with a microtiter plate washer and washed 3 times with a solution of 50 mM phosphate, 100 mM NaCl, 0.05% Tween 20, pH 7.4 (PBST). A 1:101 dilution (in PBST with 1% BSA, 1% NRS) of the primate serum to be tested was then added as 0.2 ml to each washed well and the plates were incubated at 37° C. for 30 minutes. The plates were then washed×3 with PBST, and 0.2 ml amounts of a 1:2000 dilution of goat anti-human (GAH) peroxidase enzyme conjugate (Organon Teknika, Cappel, Melvern, Pa., U.S.A.) that recognized human IgG, IgA, and IgM were added to each well, and the plates were incubated for 30 minutes at 37° C. The plates were then washed×3 with PBST and incubated with 0.2 ml/well substrate consisting of 0.1M citric acid pH 5.2, 0.1 mg/ml o-phenylene diamine, 0.01% H2 O2, at room temperature in the dark for 10 minutes. Reactions were stopped with 50 microliters of 4N H2 SO4, and the color development was quantitated in a Multiscan plate reader at A492. In each series of experiments positive and negative controls were included, and all tests were done in duplicate or quadruplicate. Most peptides and peptide conjugates were initially screened against a 1:101 dilution of pools of HIV positive or HIV negative sera, and the same serum pool was used to allow quantitative comparison of immunoreactivity of different free peptides or peptide-protein conjugates.
(§2) The peptides in FIGS. 1 and 5 were synthesized as described in Example 1 and conjugated to KLH or BSA as described in Example 2. These peptide-protein conjugates were coated to polystyrene microtiter plates all at a concentration 10 micrograms peptide/ml and evaluated for immunoreactivity as described in Example 3, using a 1:101 dilution of a pool of sera (HIV+/SIV+, respectively) containing antibodies to HIV-1 (FIG. 1) or to HIV-2 (FIG. 5), as well as pooled serum (HIV-/SIV-, respectively) containing no antibodies to HIV-1 or HIV-2. […] Since sera from patients infected with HIV-2 are relatively unavailable in the United States, the immunoreactivity of HIV-2 synthetic peptides was assessed using serum from macaques infected with SIV, obtained from the University of Washington Primate Center, Seattle, Wash., U.S.A. The AA sequence of SIV is nearly identical to HIV-2 in the region of the peptides synthesized (see Myers et al., Human Retroviruses and AIDS, 1988. A compilation of nucleic acid and amino acid sequences. Los Alamos National Laboratory, Los Alamos, N. Mex., 87545, USA).

antibodies to HIV-2 = test: Rapid EIA with latex reagents to detect antibodies to HIV-2; format: binding
Description: A 125 microliter volume of 10% latex was added to a 375 microliter volume of deionized water, and mixed with an equal volume (0.5 ml) of 1M carbodiimide, pH 4.5. The mixture was shaken gently a room temperature for 1 hour, and then washed 3 times by centrifugation at 9,000×g for 10 minutes, removal of supernate, and resuspension of the pellet in a 12-14 ml volume of deionized water, pH 4.5. The free peptides at 1 mg/ml concentration (500 micrograms/ml of each peptide 4S36 and 5S70), or the peptide-BSA conjugate of peptides 4S36 and 5S70 at 500 micrograms/ml were added to the final washed activated latex pellet (1 ml volume of peptide containing solution per 125 microliters original volume of latex). […] It was determined that this stock solution of latex coated with peptide-BSA conjugate could be diluted 1:10-1:30 with latex diluent buffer for use in the rapid EIA described below.
Serum specimens were diluted 1:8 for the rapid EIA in a serum diluent buffer consisting of 0.03M Tris, pH 8 containing 0.8% NaCl, 0.05% NaN3, 0.05% Triton x-100. […] The reaction was stopped after 3-4 minutes by adding a drop of 4N H2 SO4, and the test device could be retained as a permanent record of positive (blue-purple color) or negative (white membrane) until the results were recorded. […]

antibodies to HIV-1 [1] = test: EIA of peptide-protein conjugates coated on polystyrene microtiter plates, human sera; format: binding
Description: as §1, §2

antibodies to HIV-1 [2] = test: Rapid HIV-1 EIA with peptide reagents immobilized on latex in rapid test device; format: binding, human; conditions: passive adsorption
Description: A test device for performing rapid tests in less than 15 minutes was prepared as illustrated in FIGS. 14 and 15. Referring to FIGS. 14 and 15, the device comprises a plastic slide 10 (approximately 1 inch wide by 3/16 inch thick by 31/4 inches long) having a plurality of funnel-like wells 12, each having a capacity of approximately 200 microliters, an upper inflow tract rim 14 diameter of approximately 9 mm and a lower outflow tract 16 diameter of approximately 2 mm. The undersurface of the outflow tract 16 is designed so as to provide a smooth even contact with a membrane filter 18 placed next to it in the apparatus. The membrane filter separates reactants passing through it by size, retaining those particles above a predetermined size, such as above 0.22 microns, or above 0.45 microns in size (depending upon the specific filter chosen), through other filters placed into the apparatus might separate by binding or affinity (i.e. nitrocellulose, glass). […]
The mixture was shaken gently a room temperature for 1 hour, and then washed 3 times by centrifugation at 9,000×g for 10 minutes, removal of supernate, and resuspension of the pellet in a 12-14 ml volume of deionized water, pH 4.5. […] It was determined that this stock solution of latex coated with peptide-BSA conjugate could be diluted 1:10-1:30 with latex diluent buffer for use in the rapid EIA described below. […]

Sequence | immunoreactivity with SIV/HIV-2 antibodies (FIG. 5) (antibodies to SIV/HIV-2; C-terminal BSA-SMCC conjugates, 10 micrograms peptide/ml coating, 1:101 dilution of pooled SIV+ / SIV- macaque sera) | discrimination of positive from negative macaque sera (FIG. 7) (antibodies to SIV/HIV-2; peptide-BSA conjugates) | discrimination of HIV-2+ from HIV-2- serum samples, rapid EIA (antibodies to HIV-2) | reactivity with sera not containing antibodies to HIV-1 (FIGS. 10C, 11) (antibodies to HIV-1 [1]; BSA-SMCC conjugate, 85-87 negative human sera) | number of positive samples giving A492 less than 1.0 (antibodies to HIV-1 [1]; BSA-SMCC conjugate, 98 positive human sera (FIGS. 11A, 11B)) | positive/negative ratios (FIG. 9) (antibodies to HIV-1 [1]; BSA-peptide conjugate, polystyrene plastic type 1 (low reactivity with normal human sera)) | performance of free peptide passively adsorbed to latex (antibodies to HIV-1 [2])
ARLNSWGCAFRQVCHGC [2S25] | Significant immunoreactivity; also recorded: best immunoreactivity; also recorded: maximally immunoreactive | most favorable performances | capable of discriminating |  |  |  | 
VWGCSGKLICTTAVPGC [4S36, unnatural variant of HIV-1 gp41 peptide 2S09] |  |  |  | acceptably low | none | ≥ 20 | produced an immunoreactive reagent
